Legend:
Assay type in all cases: in vivo
Monochoria vaginalis = assay: Test Example 1: herbicidal activity, application before weed generation in submerged conditions; details: Application herbicide amount 320 g/ha; Seventeenth Table
Summary of the method: (§1)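 Pre-emergence application to water surface of submerged pots (4 cm depth, alluvial soil) on sowing day, with 2.5-leaf rice transplanted; emulsion diluted to g/ha rates. Grown in greenhouse at 25–30 °C; 0–5 herbicidal/crop-effect score after three weeks.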

[1] = tested on: Echinochloa oryzacola Vasing.; assay: as above; details: Application herbicide amount 320 g/ha; Seventeenth Table
Summary of the method: as §1

Scirpus juncoides = assay: as above; details: Application herbicide amount 320 g/ha; Seventeenth Table
Summary of the method: as §1

Leptochloa chinensis = assay: Test Example 3: herbicidal effect by application to foliage (Wagner pot, water depth 0.1-0.5 cm); details: Nineteenth Table; application to foliage; application herbicide amount 320 g/ha
Summary of the method: (§2)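 Rice-field weeds and directly sown rice were grown 14 days in flooded alluvial soil (water depth 0.1–0.5 cm) at 25–30 °C in a greenhouse. An emulsion formulation diluted to the stated g/ha rate was sprayed onto stems and leaves. Effects were scored on a 0–5 scale (herbicidal ratio bands) three weeks after treatment.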

Cyperus difformis = assay: as above; details: Nineteenth Table; application to foliage; application herbicide amount 320 g/ha
Summary of the method: as §2

[2] = tested on: Echinochloa crus-galli var. crus-galli; assay: as above; details: Nineteenth Table; application to foliage; application herbicide amount 320 g/ha
Summary of the method: as §2

Glycine max = assay: Test Example 4: effect on crop by application to foliage (diluvial soil, plastic box); details: for d: effect on crop, Glycine max: application to foliage, application herbicide amount 320 g/ha
Summary of the method: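 Plants were grown in sterilized diluvial soil in a greenhouse at 25-30° C for 14 days, then sprayed on stems and leaves with water-diluted emulsion formulation at set rates in g/ha. Weed control and crop injury were scored 3 weeks after treatment on a 0-5 herbicidal-ratio scale, from 0 (≤5%) to 5 (≥90%).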

[3] = Application herbicide amount 320 g/ha, foliage application

Row | SMILES | C: Monochoria vaginalis (herbicidal effect grade) (Monochoria vaginalis) | A: Echinochloa oryzicola Vasing. (herbicidal effect grade) [1] | B: Scirpus juncoides (herbicidal effect grade) (Scirpus juncoides) | D (herbicidal effect grade) (Leptochloa chinensis) | E (herbicidal effect grade) (Cyperus difformis) | H (herbicidal effect grade) [2] | d (Glycine max) effect on crop grade (Glycine max; [3]) | d: effect on crop, Glycine max (Glycine max) | c (Glycine max) effect on crop grade (Glycine max; foliage application, 320 g/ha) | c (Glycine max; Application herbicide amount 320 g/ha, effect on crop)
1 | CSCCNc1nnc2c(C(=O)Nc3nnc(C)o3)ccc(C(F)(F)F)n12 [1-130] | 0 (Herbicidal ratio of 5% or less (almost no effect)) | 1 (Herbicidal ratio of 5% or more and less than 20%) | 0 (Herbicidal ratio of 5% or less (almost no effect)) | 4 (Herbicidal ratio of 70% or more and less than 90%) | 2 (Herbicidal ratio of 20% or more and less than 40%) | 5 (Herbicidal ratio of 90% or more (almost completely withered)) | 3 (Herbicidal ratio of 40% or more and less than 70%) | – | – | –
2 | Cn1nnnc1NC(=O)c1ccc(C(F)(F)F)n2c(C3CCOC3)nnc12 (centres unmarked) [2-022] | 5 (Herbicidal ratio of 90% or more (almost completely withered)) | 5 (Herbicidal ratio of 90% or more (almost completely withered)) | 5 (Herbicidal ratio of 90% or more (almost completely withered)) | 5 (Herbicidal ratio of 90% or more (almost completely withered)) | 5 (Herbicidal ratio of 90% or more (almost completely withered)) | 5 (Herbicidal ratio of 90% or more (almost completely withered)) | – | 5 (Herbicidal ratio of 90% or more (almost completely withered)) | – | –
3 | Cn1nnnc1NC(=O)c1ccc(C(F)(F)F)n2c(C3CCCC3)nnc12 [2-021] | 5 (Herbicidal ratio of 90% or more (almost completely withered)) | 5 (Herbicidal ratio of 90% or more (almost completely withered)) | 5 (Herbicidal ratio of 90% or more (almost completely withered)) | 5 (Herbicidal ratio of 90% or more (almost completely withered)) | 5 (Herbicidal ratio of 90% or more (almost completely withered)) | 5 (Herbicidal ratio of 90% or more (almost completely withered)) | – | 4 (Herbicidal ratio of 70% or more and less than 90%) | – | –
4 | COCCNc1nnc2c(C(=O)Nc3nnc(C)o3)ccc(C(F)(F)F)n12 [1-109] | 0 (Herbicidal ratio of 5% or less (almost no effect)) | 0 (Herbicidal ratio of 5% or less (almost no effect)) | 2 (Herbicidal ratio of 20% or more and less than 40%) | 5 (Herbicidal ratio of 90% or more (almost completely withered)) | 3 (Herbicidal ratio of 40% or more and less than 70%) | 5 (Herbicidal ratio of 90% or more (almost completely withered)) | 3 (Herbicidal ratio of 40% or more and less than 70%) | – | – | –
5 | CC(C)c1nnc2c(C(=O)Nc3nnc(C[S+](C)[O-])o3)ccc(C(F)(F)F)n12 (centres unmarked) [1-143] | 2 (Herbicidal ratio of 20% or more and less than 40%) | 0 (Herbicidal ratio of 5% or less (almost no effect)) | 0 (Herbicidal ratio of 5% or less (almost no effect)) | 2 (Herbicidal ratio of 20% or more and less than 40%) | 4 (Herbicidal ratio of 70% or more and less than 90%) | 4 (Herbicidal ratio of 70% or more and less than 90%) | 1 (Herbicidal ratio of 5% or more and less than 20%) | – | – | –
6 | Cn1nnnc1NC(=O)c1ccc(C(F)(F)F)n2c(C3=NOC(C)(C)C3)nnc12 [2-028] | 5 (Herbicidal ratio of 90% or more (almost completely withered)) | 5 (Herbicidal ratio of 90% or more (almost completely withered)) | 5 (Herbicidal ratio of 90% or more (almost completely withered)) | 5 (Herbicidal ratio of 90% or more (almost completely withered)) | 5 (Herbicidal ratio of 90% or more (almost completely withered)) | 5 (Herbicidal ratio of 90% or more (almost completely withered)) | – | – | 3 (Herbicidal ratio of 40% or more and less than 70%) | –
7 | Cc1nnc(NC(=O)c2ccc(C(F)(F)F)n3c(N4CC[S+]([O-])CC4)nnc23)o1 [1-119] | 0 (Herbicidal ratio of 5% or less (almost no effect)) | 2 (Herbicidal ratio of 20% or more and less than 40%) | 1 (Herbicidal ratio of 5% or more and less than 20%) | 5 (Herbicidal ratio of 90% or more (almost completely withered)) | 2 (Herbicidal ratio of 20% or more and less than 40%) | 5 (Herbicidal ratio of 90% or more (almost completely withered)) | 4 (Herbicidal ratio of 70% or more and less than 90%) | – | – | –
8 | Cn1nnnc1NC(=O)c1ccc(C(F)(F)F)n2c(C(C)(C)C)nnc12 [2-027] | 5 (Herbicidal ratio of 90% or more (almost completely withered)) | 5 (Herbicidal ratio of 90% or more (almost completely withered)) | 5 (Herbicidal ratio of 90% or more (almost completely withered)) | 5 (Herbicidal ratio of 90% or more (almost completely withered)) | 5 (Herbicidal ratio of 90% or more (almost completely withered)) | 5 (Herbicidal ratio of 90% or more (almost completely withered)) | – | 1 (Herbicidal ratio of 5% or more and less than 20%) | – | –
9 | COCCOC(=O)Cc1nnc2c(C(=O)Nc3nnc(C)o3)ccc(C(F)(F)F)n12 [1-060] | 3 (Herbicidal ratio of 40% or more and less than 70%) | 4 (Herbicidal ratio of 70% or more and less than 90%) | 4 (Herbicidal ratio of 70% or more and less than 90%) | 4 (Herbicidal ratio of 70% or more and less than 90%) | 3 (Herbicidal ratio of 40% or more and less than 70%) | 5 (Herbicidal ratio of 90% or more (almost completely withered)) | – | – | – | 0 (Herbicidal ratio of 5% or less (almost no effect))
10 | CCSc1nnc2c(C(=O)Nc3nnnn3C)ccc(C(F)(F)F)n12 [2-024] | 5 (Herbicidal ratio of 90% or more (almost completely withered)) | 5 (Herbicidal ratio of 90% or more (almost completely withered)) | 5 (Herbicidal ratio of 90% or more (almost completely withered)) | 5 (Herbicidal ratio of 90% or more (almost completely withered)) | 5 (Herbicidal ratio of 90% or more (almost completely withered)) | 5 (Herbicidal ratio of 90% or more (almost completely withered)) | – | 5 (Herbicidal ratio of 90% or more (almost completely withered)) | – | –
11 | COc1ccc(CSc2nnc3c(C(=O)Nc4nnc(C)o4)ccc(C(F)(F)F)n23)cc1 [1-114] | 0 (Herbicidal ratio of 5% or less (almost no effect)) | 3 (Herbicidal ratio of 40% or more and less than 70%) | 2 (Herbicidal ratio of 20% or more and less than 40%) | 4 (Herbicidal ratio of 70% or more and less than 90%) | 2 (Herbicidal ratio of 20% or more and less than 40%) | 4 (Herbicidal ratio of 70% or more and less than 90%) | 0 (Herbicidal ratio of 5% or less (almost no effect)) | – | – | –
